Experimental data from US20170240535A1, “HDAC1/2 INHIBITORS FOR THE TREATMENT OF NEURODEGENERATIVE AND/OR COGNITIVE DISORDERS” (Regenacy Pharmaceuticals, LLC, priority 2016, published 2017).
“Also recorded” adds a separate entry of the source.

Key:
HDAC1 = target: T1, HDAC1 (Homo sapiens, UniProt Q13547); assay: HDAC enzyme assay, HDAC1; assay type: biochemical; conditions: enzyme and compound incubated 24 hours at room temperature
T1 construct: purchased BPS Biosciences
Experimental: (§1) Compounds for testing were diluted in DMSO to 50 fold the final concentration and a ten point three fold dilution series was made. The compounds were diluted in assay buffer (50 mM HEPES, pH 7.4, 100 mM KCl, 0.001% Tween-20, 0.05% BSA, 20 μM TCEP) to 6 fold their final concentration. The HDAC enzymes (purchased from BPS Biosciences) were diluted to 1.5 fold their final concentration in assay buffer. The tripeptide substrate and trypsin at 0.05 μM final concentration were diluted in assay buffer at 6 fold their final concentration. The final enzyme concentrations used in these assays were 3.3 ng/ml (HDAC1), 0.2 ng/ml (HDAC2) and 0.08 ng/ml (HDAC3). The final substrate concentrations used were 16 μM (HDAC1), 10 μM (HDAC2) and 17 μM (HDAC3). Five μl of compound and 20 μl of enzyme were added to wells of a black, opaque 384 well plate in duplicate. Enzyme and compound were incubated together at room temperature for 24 hours. Five μl of substrate was added to each well, the plate was shaken for 60 seconds and placed into a Victor 2 microtiter plate reader. The development of fluorescence was monitored for 60 min and the linear rate of the reaction was calculated. The IC50 was determined using Graph Pad Prism by a four parameter curve fit.

HDAC2 = target: T2, HDAC2 (Homo sapiens, UniProt Q92769); assay: HDAC enzyme assay, HDAC2; assay type: biochemical; conditions: enzyme and compound incubated 24 hours at room temperature
T2 construct: purchased BPS Biosciences
Experimental: as §1

[1] = test system: APPSwDI/NOS2−/− transgenic mice; assay: Radial arm water maze (RAWM) in APPSwDI/NOS2−/− model of Alzheimer's disease; assay type: in vivo; conditions: 10 mg/kg orally daily for 4 weeks; for RAWM escape latency / RAWM number of errors: vs vehicle treated transgenic / wild type
Experimental: The ability of HDAC1/2 inhibitor Compound 1 to improve cognitive deficits of APPSwDI/NOS2−/− transgenic mice was tested in the radial arm water maze (RAWM).
The Study was performed on APPSwDI/NOS2−/− transgenic (mouse model of Alzheimer's disease) as well as non-transgenic mice, bred at Charles River (Finland). Animals for the main study are 10.5 months old at start. A total number of 45 transgenic (divided into 22 untreated and 23 treated) and 25 non-transgenic controls are used for the study
Transgenic mice are allocated to two different treatment groups, either treated with vehicle (20% HP-β-CD in water) or Compound 1 (dosage 10 mg/kg) administered orally via gavage daily for 4 weeks total. The application volume is 10 ml/kg/dose whereby each animal is weighed once a week and receives a volume according to its individual actual weight.
Spatial learning capacities of all animals were tested in the Radial Arm Water Maze (RAWM). Briefly a six arm maze was submerged in a pool of water, and a platform was placed at the end of one arm. The mouse received 15 trials per day for 2 days and on each trial was started in a different arm while the arm containing the platform remained the same for each mouse. The first 10 trials were considered training and alternated between a visible and a hidden platform. The final trials for day 1 and all trials on day 2 were tested with a hidden platform. The number of errors (incorrect arm entries) were counted over a 1 min period. The errors were averaged over six trials resulting in 5 blocks for the 2 day period. Latency to find the platform was also recorded, and averaged similarly as the errors.

[2] = APPSwDI/NOS2−/− mice, listed as compound 1, 10 mg/kg

T1 sequence (Q13547 whole entry): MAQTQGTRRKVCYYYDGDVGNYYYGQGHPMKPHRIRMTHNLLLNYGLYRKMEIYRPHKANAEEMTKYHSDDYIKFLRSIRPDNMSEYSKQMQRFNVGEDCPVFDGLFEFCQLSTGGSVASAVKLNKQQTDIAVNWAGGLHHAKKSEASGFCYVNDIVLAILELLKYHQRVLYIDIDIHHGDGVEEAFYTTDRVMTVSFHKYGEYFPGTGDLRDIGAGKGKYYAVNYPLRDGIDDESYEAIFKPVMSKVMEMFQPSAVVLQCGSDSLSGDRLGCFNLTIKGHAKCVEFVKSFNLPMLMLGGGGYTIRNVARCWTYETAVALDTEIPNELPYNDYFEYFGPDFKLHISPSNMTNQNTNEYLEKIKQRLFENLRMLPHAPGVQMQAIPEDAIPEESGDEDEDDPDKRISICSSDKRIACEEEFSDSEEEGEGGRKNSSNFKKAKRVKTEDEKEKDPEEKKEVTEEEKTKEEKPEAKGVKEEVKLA
T2 sequence (Q92769 whole entry): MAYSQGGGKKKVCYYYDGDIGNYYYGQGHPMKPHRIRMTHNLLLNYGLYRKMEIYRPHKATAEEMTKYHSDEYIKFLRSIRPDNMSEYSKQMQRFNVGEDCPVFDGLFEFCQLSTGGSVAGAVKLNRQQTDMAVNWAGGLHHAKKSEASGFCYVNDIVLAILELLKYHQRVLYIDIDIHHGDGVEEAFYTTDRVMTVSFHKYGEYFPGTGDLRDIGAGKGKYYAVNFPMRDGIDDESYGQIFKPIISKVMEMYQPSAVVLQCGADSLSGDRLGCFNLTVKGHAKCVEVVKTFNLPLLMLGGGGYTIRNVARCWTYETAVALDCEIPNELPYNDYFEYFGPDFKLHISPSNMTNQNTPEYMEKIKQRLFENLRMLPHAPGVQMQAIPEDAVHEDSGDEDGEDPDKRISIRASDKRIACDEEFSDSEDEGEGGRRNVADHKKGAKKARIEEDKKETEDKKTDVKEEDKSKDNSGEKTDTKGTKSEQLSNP

Compound: Nc1ccc(-c2ccccc2)cc1NC(=O)c1cc2ccc(N3CCNCC3)cc2cn1 [Compound 1]
- IC50 (HDAC1): 5 nM
- IC50 (HDAC2): 13 nM
- tolerability ([1]; APPSwDI/NOS2−/− mice): very well tolerated in all animals
- learning behavior during training ([1]; APPSwDI/NOS2−/− mice, vs vehicle treated transgenic): significantly better learning behavior
- RAWM escape latency ([1]; APPSwDI/NOS2−/− mice, 10 mg/kg): improved escape latency time; also recorded: reversed the increased latency
- RAWM number of errors ([1]; APPSwDI/NOS2−/− mice, 10 mg/kg): decrease in the number of errors; also recorded: reversed the increased latency and number of errors
- RAWM escape latency [1, 2]: not statistically different from wild type mice
- RAWM number of errors [1, 2]: not statistically different from wild type mice
- body weight ([1]; treatment groups): no differences in body weight
